From patent US20230414624A1, “METHODS OF TREATING NEUROLOGICAL VENTILATORY INSUFFICIENCY” (Enalare Therapeutics Inc., priority 2022, published 2023)
Entries after “also recorded” stand apart in the source; their conditions may differ.

Columns and labels:
[1] = system: premature lambs; test: Premature (preterm) lamb proof of concept study: spontaneous ventilation under IV bolus and ascending continuous infusion; assay type: in vivo
Procedure: One set of twin lambs were to be delivered premature via cesarian section, stabilized and managed for four hours. […] The protocol was reviewed and approved by the Institutional Animal Care and Use Committee at Thomas D. Morris, Inc., where the study was conducted.
During delivery and with local anesthesia (1 ml; 2% Lidocaine), lambs were instrumented with an endotracheal tube as well as carotid arterial and jugular catheters through an incision at approximately the midpoint of the anterior neck. Once the umbilical cord was tied and severed, lambs were transferred to a heated surgical bed under a radiant warming lamb. The arterial catheter was connected to a transducer for pressure monitoring and the venous catheter was connected to a pump for continuous infusion of 5% dextrose in water (D5W) at a rate of 6 ml/kg/hr. A reaction thermistor was inserted to monitor temperature and lambs were covered with plastic to minimize evaporative heat loss. The airway was suctioned and Surfactant (Curosurf, 2.5 ml/kg) was administered intratracheally over a period of 5 minutes in 4 positions (Trendelenburg, reverse Trendelenburg, and left and right lateral decubitus positions). Lambs were to receive four mechanical breaths for lung recruitment and then started on CPAP initiated at 5 cmH2O and continuously optimized to effect (4-8 cmH2O) along with fraction of inspired oxygen (FIO2) over the course of the study.
The formulation used was a 10 mg/mL aqueous solution (adjusted for the hydrogen sulfate salt and impurities) with a citric acid buffer and a pH of 3.2. The infusion was with ascending dose hourly, while the second lamb was to serve as sham control. […] The four, hourly doses are described in table 1.
For pulmonary function assessments, a pneumotach was placed between the endotracheal tube and the CPAP connector. At least ten representative breaths free of movement of atypical breathing artifact were recorded using a pulmonary function system designed for neonatal research (NewLifeBox-R, Advanced Life Diagnostics, Weener, Germany). For each period the rate, tidal volumes and minute ventilation was derived from an average of the ten breaths. To maintain a stable plain of anesthesia, repeat doses of fentanyl (1 μg IM) were given as needed throughout the protocol based on blood pressure response to stimulation. At the conclusion of the study, animals were sacrificed and tissue sampled harvested for subsequent histopathology.

[2] = system: adult humans; conditions: 0.4 mg/kg/hr infusion; cited from earlier work
[3] = 3 mg/kg IV bolus, animals; cited from earlier work
[4] = test lamb, ascending hourly infusion

CCCNc1nc(NCCC)nc(N(C)OC)n1 [Compound 1, N-(4,6-Bis-n-propylamino-[1,3,5]triazin-2-yl)-O,N-dimethyl-hydroxylamine]
Spontaneous breathing, both lambs ([1]; after bolus administration of a loading dose): immediately resulted in spontaneous breathing in both lambs | Respiratory rate (RR), course over the four hours ([1]; in vivo): gradually decreased | Spontaneous breathing after IV bolus ([1]; sham lamb 4.1 kg, no spontaneous breathing before, single IV bolus 2.4 mg/kg, no infusion): the lamb began breathing spontaneously. After several minutes, the spontaneous breathing efforts abated | Spontaneous breathing after IV bolus loading dose ([1]; test lamb 3.2 kg, no spontaneous breathing before, IV bolus 3.1 mg/kg during 0.4 mg/kg/hr infusion, then continuous infusion for four hours): the lamb began breathing spontaneously and never again required manual intervention | Spontaneous minute ventilation (MV) at baseline and for 10 minutes after start of infusion ([1]; test lamb, 0.4 mg/kg/hr infusion without loading dose): zero | Spontaneous minute ventilation (MV) immediately following the bolus loading dose ([1]; test lamb, IV bolus 3.1 mg/kg): approximately 1,100 mL/min | End tidal carbon dioxide level (EtCO2), course over the four hours [1, 4]: concomitant decrease; also recorded: progressive decline | Heart rate and mean arterial pressure through the four hours [1, 4]: stable | Tidal volume, course over the four hours [1, 4]: consistent rise | Minute ventilation (MV), course over the four hours ([1]; test lamb, ascending hourly infusion 0.4, 1.1, 2.0, 12 mg/kg/hr): continued to rise | Minute ventilation (MV), all but the first three measurements of spontaneous breathing ([1]; test lamb, ascending hourly infusion, 1,344 mL/min = maximal MV of literature mechanical ventilation): exceeded 1,344 mL/min | Tidal volume per kg of body weight versus lung protective range ([1]; test lamb, ascending hourly infusion, range 4 to 6 mL/kg): at least as deep and ultimately surpassed the lung protective range of 4 to 6 mL/kg; also recorded: always within or above the noted target tidal volume range | Respiratory rate ([1]; test lamb, whole study period, normal newborn lamb 36 to 48): ≥ 70 breaths per minute | Efficacy of the low dose in adult humans [2]: minimal effect; also recorded: limited efficacy; also recorded: humans; minimal efficacy | Plasma levels after bolus intravenous injection [3]: transient therapeutic plasma levels
